# Counter-ions that a name gives are not always drawn.
# How the values were obtained:
# [1] = system: Interferon beta (IFNβ), interleukin-6 (IL-6) and tumor necrosis factor alpha (TNFα); assay: Serum and tumor cytokine levels in CT26 tumor-bearing mice (ELISA); assay type: in vivo, BALB/c mice; conditions: 0.375 mg/kg single i.v.
# Description: Pharmacokinetic and Pharmacodynamic Profiling and Estimation of Immune Cell Infiltration in Tumors Following Treatment with Compounds 2, 6, 8, 12 and 14
# Serum and tumor cytokine levels and corresponding compound concentrations in mouse plasma were determined following single-dose intravenous administration in CT26 (murine colorectal carcinoma) tumor-bearing mice. Briefly, naïve BALB/c mice in the age group of 6-8 weeks were inoculated with 0.1 million CT-26 cells/animal in phosphate buffered saline (PBS), subcutaneously. […] Blood and tumor samples were harvested at various time points up to 24 h post-dose. Tumor samples were homogenized and prepared for cytokine estimation (ELISA) and compound concentration were determined by LC-MS/MS. Serum aliquots and tumor samples were snap-frozen and stored at −80° C. till further analysis. Serum and tumor samples were evaluated for Interferon beta (IFNβ), interleukin-6 (IL-6) and tumor necrosis factor alpha (TNFα) by enzyme linked immunosorbent assay (ELISA) using kits from R & D systems (Quantikine mouse IL-6 and TNFα kits) and PBL biosciences (Verikine mouse IFNβ kit).
# Cytokine analysis from mouse serum samples: For IL-6 and TNFα estimation, 50 μL of test samples or internal standard or control were applied to wells in duplicates and incubated for 2 h at room temperature, followed by aspiration and washing four times with 400 μL of wash buffer. 100 μL of mouse IL-6 or TNFα conjugate solution was added and incubated further for 2 h at room temperature and followed later by 4 wash cycles. 100 μL of substrate solution was added to each well with addition of stop solution after 30 min. Optical density was measured at 450 nm averaged and was used for further calculations following subtraction of respective blank controls. Cytokine concentrations were determined by interpolating the optical density of samples into the reference standard curve utilizing four parameter logistic (4-PL) curve-fit. Cytokine concentrations were normalized with their respective dilution factors and represented in pg/mL. For IFNβ estimation, 100 μL test sample or internal standard or controls were applied to the wells in duplicates and incubated for 1 h at room temperature followed by three washes and addition of the anti-mouse IFNβ antibody solution with further 1 h incubation. This was followed by addition of horseradish peroxidase (HRP) solution and three washes, later addition of TMB substrate and reading the optical density at 450 nm. Optical densities were blank-subtracted and interpolated to the reference standard utilizing the four parameter logistic (4-PL) curve-fit. Cytokine concentrations were normalized with their respective dilution factors and represented in pg/mL. Tables 4 and 5 indicate cytokine levels for compounds 2, 6, 8, 12, and 14 in serum and tumor at different administered doses.
# Cytokine analysis from tumor samples: Tumor samples were homogenized in a bead-based homogenizer and lysates were prepared with buffer supplemented with 1% Triton X-100 and protease inhibitors. Cytokine levels were estimated by ELISA and expressed as pg/g tumor.
# Human STING = molecular target: T1, Human STING (Homo sapiens, UniProt Q86WV6, G230A/H232R/R293Q/R71H); assay: Stimulation of human STING signaling in THP1 cell line (THP1-Blue ISG SEAP reporter); assay type: cell-based; conditions: THP1-Blue ISG cells, SEAP activity, 18-20 hours
# T1 construct: using human THP1-Blue™ ISG SEAP based reporter cell line (Invivogen); host or cells: THP1-Blue ISG cells (human monocytic THP-1 derived SEAP reporter line)
# Description: Biological Assay—Stimulation of Human STING Signaling in THP1 Cell Line
# Compounds were tested for their STING activation potential using human THP1-Blue™ ISG SEAP based reporter cell line (Invivogen). Briefly, THP1-Blue ISG cells (100,000 cells/well) in 96 well plate were treated with varying concentrations of test and reference compounds and incubated at 37° C. with 5% CO2 for 18-20 hours. The control untreated cells were also set up. Post incubation, the cell supernatant was tested for SEAP (Secreted Embryonic Alkaline Phosphatase) activity using the QuantiBlue™ substrate reagent (Invivogen). The formation of blue coloured product was quantified by measuring absorbance at wavelength of 620 nm using PheraStar/Tecan reader. The average of duplicate readouts for each data point was plotted in GraphPad prism 6 against the concentration of test or reference compound to calculate EC50 value. The fold of SEAP induction or increase in luminescence at different data points was estimated against the un-stimulated cell control set.
# CD3^+CD8^+ T cells = assay: Estimation of immune cell infiltration in tumors (flow cytometry); assay type: in vivo, Balb/c mice
# Description: Estimation of immune cell infiltration in tumors: CT-26 tumor-bearing Balb/c mice were treated intravenously with 0.375 mg/kg of test compounds and blood and tumors were processed for analysis of CD8^+, CD3^+ and CD45^+ T cells at 24 h and 96 h after start of treatment. Blood samples were subjected to RBC lysis and the cells were recovered by centrifugation. Following wash with PBS, the cells were blocked using TruStain FcX™ blocking antibody and stained with fluorophore-tagged anti-CD45, anti-CD3 and anti-CD8 antibodies. Tumor samples were minced and subjected to tissue digestion using freshly prepared collagenase-IV solution (1 mg/ml) containing DNase (0.05 mg/ml) for 1-1.5 h at 37° C. and 150-200 rpm. Single cell suspension was prepared by filtering it through a 100 μm mesh and checked for cell viability. Cells were stained with various antibodies as mentioned above. The distinct T cell subsets were analysed on FACS Canto II (BD) and percentage of each population was calculated after initial gating of CD45^+ lymphocyte population.
# T1 sequence (Q86WV6 whole entry R71H/G230A/H232R/R293Q): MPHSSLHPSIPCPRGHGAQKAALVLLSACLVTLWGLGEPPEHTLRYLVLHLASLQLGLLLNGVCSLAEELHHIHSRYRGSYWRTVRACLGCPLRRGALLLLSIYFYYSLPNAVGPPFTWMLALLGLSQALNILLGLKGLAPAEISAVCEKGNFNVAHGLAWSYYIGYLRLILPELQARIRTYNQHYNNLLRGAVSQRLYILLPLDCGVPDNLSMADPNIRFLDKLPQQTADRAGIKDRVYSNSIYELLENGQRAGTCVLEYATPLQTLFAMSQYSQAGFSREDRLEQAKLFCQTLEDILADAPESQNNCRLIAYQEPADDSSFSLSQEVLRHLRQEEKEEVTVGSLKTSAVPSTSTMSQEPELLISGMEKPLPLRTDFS
SMILES,Serum IFNβ ([1]; 3.5 h (Table 6)),Tumor IFNβ ([1]; 3.5 h (Table 6)),Serum IFNβ ([1]; 8 h (Table 6)),Tumor IFNβ ([1]; 8 h (Table 6)),Serum IFNβ ([1]; 12 h (Table 6)),Tumor IFNβ ([1]; 12 h (Table 6)),Serum IFNβ ([1]; 24 h (Table 6)),Tumor IFNβ ([1]; 24 h (Table 6)),EC50 (Human STING),"% CD3^+CD8^+ T cells (CD3^+CD8^+ T cells; infiltration in tumor, 96 h post treatment, 0.375 mg/kg single i.v.)","% CD3^+CD8^+ T cells infiltrating the tumor as compared to the vehicle-treated group (CD3^+CD8^+ T cells; single i.v. dose of 0.375 mg/kg, 96 h post treatment initiation)"
"CCn1nc(C)cc1C(=O)Nc1nc2cc(C(N)=O)cc3c2n1C/C=C/Cn1c(NC(=O)c2cc(C)nn2CC)nc2cc(C(=O)N[C@H]4CC[C@H](C(=O)O)CC4)cc(c21)OC[C@@H](N1C2CCC1COC2)CO3 [Compound 14, (1S,4R)-4-((8S,E)-8-(3-oxa-8-azabicyclo[3.2.1]octan-8-yl)-12-carbamoyl-1,15-bis(1-ethyl-3-methyl-1H-pyrazole-5-carboxamido)-8,9,16,19-tetrahydro-7H-6,10-dioxa-2,14,15a,19a-tetraazacyclopentadeca[3,2,1-cd:8,9,10-c′d′]diindene-4-carboxamido)cyclohexane-1-carboxylic acid sodium salt]",768 ± 330.8 pg/mL,2433 ± 653.8 pg/g tumor,415 ± 8.7 pg/mL,2137 ± 261.8 pg/g tumor,5 ± 5 pg/mL,752 ± 126.6 pg/g tumor,BLQ,380 ± 239 pg/g tumor,1 to 10 nM,,
"CCn1nc(C)cc1C(=O)Nc1nc2cc(C(N)=O)cc3c2n1C/C=C/Cn1c(NC(=O)c2cc(C)nn2CC)nc2cc(C(=O)N[C@H]4CC[C@H](c5nnn[nH]5)CC4)cc(c21)OC[C@@H](N1C2CCC1COC2)CO3 [Compound 12, (8S,E)-N4-((1R,4S)-4-(1H-tetrazol-5-yl)cyclohexyl)-8-(3-oxa-8-azabicyclo[3.2.1]octan-8-yl)-1,15-bis(1-ethyl-3-methyl-1H-pyrazole-5-carboxamido)-8,9,16,19-tetrahydro-7H-6,10-dioxa-2,14,15a,19a-tetraazacyclopentadeca[3,2,1-cd:8,9,10-c′d′]diindene-4,12-dicarboxamide sodium salt]",4248 ± 706 pg/mL,6190 ± 687.0 pg/g tumor,568 ± 48.6 pg/mL,1144 ± 128.9 pg/g tumor,16 ± 15.7 pg/mL,789 ± 378.2 pg/g tumor,BLQ,94 ± 48.3 pg/g tumor,1 to 10 nM,12.2 ± 0.5%,increase
